Assay results published in PMC5242521 (PLoS ONE, 2017).
Several values for one entry are separate records, joined by “and”; a condition that tells them apart may be missing. Equal entries are not always repeated. Entries after “also recorded” stand apart in the source; their conditions may differ.

Experiments:
OCT1 = biological target: T1, OCT1 (Homo sapiens, UniProt O15245); experiment: OCT1 activity: DAPI accumulation in HEK-OCT1 cells; settings: for inhibition at 100 μM: human, pH 7.4
T1 sequence (O15245 1-554): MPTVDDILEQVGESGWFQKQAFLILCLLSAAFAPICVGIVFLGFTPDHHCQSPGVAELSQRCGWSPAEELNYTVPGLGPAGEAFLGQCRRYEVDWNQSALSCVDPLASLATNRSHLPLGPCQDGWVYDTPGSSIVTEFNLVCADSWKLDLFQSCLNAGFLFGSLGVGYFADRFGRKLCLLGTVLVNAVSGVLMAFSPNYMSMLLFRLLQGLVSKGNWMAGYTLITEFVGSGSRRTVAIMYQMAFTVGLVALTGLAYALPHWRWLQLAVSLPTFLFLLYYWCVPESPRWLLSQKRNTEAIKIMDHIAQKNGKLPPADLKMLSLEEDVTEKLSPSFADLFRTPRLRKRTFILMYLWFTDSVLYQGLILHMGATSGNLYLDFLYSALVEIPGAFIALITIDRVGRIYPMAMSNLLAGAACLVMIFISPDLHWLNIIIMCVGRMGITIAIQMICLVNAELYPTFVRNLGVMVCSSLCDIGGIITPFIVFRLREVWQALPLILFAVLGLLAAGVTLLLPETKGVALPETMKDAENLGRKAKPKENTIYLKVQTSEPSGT
Description: (§1) The effects of pyrethroids on activity of ABC and SLC transporters were determined through measuring cellular accumulation or retention of fluorescent or radiolabeled reference substrates for transporters, in the presence or absence of reference inhibitors, as previously described. The nature of cells and reference substrates and inhibitors used for transport assays are summarized in S3 Table.
The nature of substrates and reference inhibitors and the incubation times with substrates, that varied according to the transporter, were selected in agreement with previous studies and are indicated in S3 Table. The total incubation volume with substrates was 200 μL/well. […] An aliquot of cell lysate (5 μL) was then taken for determining cellular protein content by the Bradford method.
(§2) Intracellular concentrations of reference substrates were initially expressed as fluorescence arbitrary units (for fluorescent dye substrates) or as moles (for radiolabeled substrates) and normalized to cellular protein content, determined by the Bradford method. They were finally used for calculating percentage of transporter activity, according to the following equations [41, 45]: %ABCtransporter activity=([Substrateref inh]-[Substratepyrethroid])×100/([Substrateref inh]-[Substratecontrol]) (1) %SLC transporter activity=([Substratepyrethroid]-[Substratref inh])×100/([Substratecontrol]-[Substrateref inh]) (2) with [Substratepyrethroid] = cellular concentration of reference substrate in the presence of pyrethroid, [Substrateref inh] = cellular concentration of reference substrate in the presence of reference inhibitor and [Substratecontrol] = cellular concentration of reference substrate in control cells not exposed to pyrethroid or reference inhibitor.
(§3) The initial tested concentration of pyrethroids was 100 μM. […] Such concentrations were calculated using GraphPad Prism software (GraphPad Software, La Jolla, CA), through nonlinear regression based on the four parameter logistic function using the following equations: […]

[1] = design: method as in PMID 12708229; settings: human subjects environmentally exposed; ref [70]; cited from earlier work
P-gp [2] = settings: ref [78]; cited from earlier work
P-gp [3] = biological target: P-gp (Homo sapiens, UniProt P08183); experiment: P-gp activity: rhodamine 123 accumulation in MCF7R cells; settings: pyrethroid 100 μM
Description: as §1
For accumulation assays (performed for all transporters, excepted BCRP), transporter-expressing cells usually cultured in 48-well plates were first incubated at 37°C with reference substrates in the absence (control) or presence of pyrethroids or reference inhibitors, in a well-defined transport assay medium, consisting of 136 mM NaCl, 5.3 mM KCl, 1.1mM KH2PO4, 0.8 mM MgSO4, 1.8 mM CaCl2, 10 mM HEPES, 11 mM D-glucose and adjusted to pH = 7.4 (excepted for MATE transporter assays, for which pH was set to 8.4). The nature of substrates and reference inhibitors and the incubation times with substrates, that varied according to the transporter, were selected in agreement with previous studies and are indicated in S3 Table. The total incubation volume with substrates was 200 μL/well. After washing twice in phosphate-buffered saline (PBS) (200 μL/well/washing), cells were lysed in distilled water (155 μL/well). An aliquot of cell lysate (5 μL) was then taken for determining cellular protein content by the Bradford method. The rest of lysate (150 μL/well) was used for measuring intracellular accumulation of reference substrates by scintillation counting or spectrofluorimetry using a SpectraMax Gemini SX spectrofluorometer (Molecular Devices, Sunnyvale, CA, USA) (excitation and emission wavelengths were 485 and 535 nm, respectively, for rhodamine 123 and fluorescein, and 355 and 460 nm, respectively, for DAPI).
as §2, §3

P-gp [4] = settings: ref [26], [27]; cited from earlier work
OATP1B1 = biological target: T2, OATP1B1 (Homo sapiens, UniProt Q9Y6L6); experiment: OATP1B1 activity: E3S accumulation in CHO-OATP1B1 cells; format: cell-based; settings: pyrethroid 100 μM; CHO-OATP1B1 cells, E3S
T2 construct: expressed in transfected cells; host or cells: CHO
T2 sequence (Q9Y6L6 1-691): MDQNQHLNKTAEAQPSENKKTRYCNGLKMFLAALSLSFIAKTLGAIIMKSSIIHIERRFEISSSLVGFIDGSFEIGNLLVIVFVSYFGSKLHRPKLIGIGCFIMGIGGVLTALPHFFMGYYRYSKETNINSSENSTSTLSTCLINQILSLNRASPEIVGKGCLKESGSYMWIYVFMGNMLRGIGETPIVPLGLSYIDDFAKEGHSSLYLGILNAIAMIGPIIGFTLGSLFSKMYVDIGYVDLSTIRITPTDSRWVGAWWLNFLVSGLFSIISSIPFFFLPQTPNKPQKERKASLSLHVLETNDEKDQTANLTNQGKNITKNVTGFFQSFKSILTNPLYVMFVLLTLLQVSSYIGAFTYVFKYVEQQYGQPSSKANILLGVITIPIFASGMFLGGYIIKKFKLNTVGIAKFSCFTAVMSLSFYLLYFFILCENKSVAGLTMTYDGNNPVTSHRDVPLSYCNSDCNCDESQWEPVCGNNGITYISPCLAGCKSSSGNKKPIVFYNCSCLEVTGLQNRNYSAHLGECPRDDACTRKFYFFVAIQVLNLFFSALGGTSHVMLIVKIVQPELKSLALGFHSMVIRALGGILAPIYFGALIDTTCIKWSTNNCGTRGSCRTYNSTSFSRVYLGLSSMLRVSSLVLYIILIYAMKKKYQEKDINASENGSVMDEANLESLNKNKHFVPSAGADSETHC
Description: (§4) The initial tested concentration of pyrethroids was 100 μM.

BCRP ATPase activity = settings: ref [28]; cited from earlier work
BCRP = biological target: T3, BCRP (Homo sapiens, UniProt Q9UNQ0); experiment: BCRP activity: Hoechst 33342 retention in HEK-BCRP cells; format: cell-based; settings: pyrethroid 100 μM
T3 construct: expressed in transfected cells; host or cells: HEK293
T3 sequence (Q9UNQ0 1-655): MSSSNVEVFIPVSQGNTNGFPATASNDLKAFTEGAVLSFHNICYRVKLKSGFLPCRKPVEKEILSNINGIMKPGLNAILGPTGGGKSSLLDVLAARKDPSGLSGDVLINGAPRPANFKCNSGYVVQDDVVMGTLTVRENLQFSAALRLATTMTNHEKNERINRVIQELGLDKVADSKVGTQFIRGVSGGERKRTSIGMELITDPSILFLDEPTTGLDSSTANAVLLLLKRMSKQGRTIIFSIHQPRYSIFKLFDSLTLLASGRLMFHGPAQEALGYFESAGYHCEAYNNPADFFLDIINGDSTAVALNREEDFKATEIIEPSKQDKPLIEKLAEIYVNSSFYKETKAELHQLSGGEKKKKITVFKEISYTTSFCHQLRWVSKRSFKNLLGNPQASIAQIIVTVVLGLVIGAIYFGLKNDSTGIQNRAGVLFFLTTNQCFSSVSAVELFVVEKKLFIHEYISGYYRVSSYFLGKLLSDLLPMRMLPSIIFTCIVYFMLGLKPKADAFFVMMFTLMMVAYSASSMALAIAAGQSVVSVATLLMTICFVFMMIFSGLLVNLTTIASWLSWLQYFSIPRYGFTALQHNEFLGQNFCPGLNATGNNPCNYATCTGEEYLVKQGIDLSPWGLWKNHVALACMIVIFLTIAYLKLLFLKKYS
Description: For retention assay (used for BCRP activity), HEK-BCRP cells cultured in 48-well plates were first loaded at 37°C with transport assay (200 μL/well) containing 16.2 μM Hoechst 33342 for 30 min. After washing twice in PBS (200 μL/well/washing), cells were reincubated in Hoechst 33342-free transport assay medium (200 μL/well) at 37°C for 90 min in the absence or presence of pyrethroids or of the BCRP reference inhibitor fumitremorgin C used at 10 μM. Cells were next lysed in distilled water (155 μL/well) after washing twice in PBS (200 μL/well/washing). The cell lysate was finally used for determining cellular protein content and intracellular retention of Hoechst 33342 (by spectrofluorimetry: excitation and emission wavelengths were 355 and 460 nm, respectively), as described above.
as §4

P-gp (Homo sapiens, UniProt P08183), sequence (P08183 whole entry): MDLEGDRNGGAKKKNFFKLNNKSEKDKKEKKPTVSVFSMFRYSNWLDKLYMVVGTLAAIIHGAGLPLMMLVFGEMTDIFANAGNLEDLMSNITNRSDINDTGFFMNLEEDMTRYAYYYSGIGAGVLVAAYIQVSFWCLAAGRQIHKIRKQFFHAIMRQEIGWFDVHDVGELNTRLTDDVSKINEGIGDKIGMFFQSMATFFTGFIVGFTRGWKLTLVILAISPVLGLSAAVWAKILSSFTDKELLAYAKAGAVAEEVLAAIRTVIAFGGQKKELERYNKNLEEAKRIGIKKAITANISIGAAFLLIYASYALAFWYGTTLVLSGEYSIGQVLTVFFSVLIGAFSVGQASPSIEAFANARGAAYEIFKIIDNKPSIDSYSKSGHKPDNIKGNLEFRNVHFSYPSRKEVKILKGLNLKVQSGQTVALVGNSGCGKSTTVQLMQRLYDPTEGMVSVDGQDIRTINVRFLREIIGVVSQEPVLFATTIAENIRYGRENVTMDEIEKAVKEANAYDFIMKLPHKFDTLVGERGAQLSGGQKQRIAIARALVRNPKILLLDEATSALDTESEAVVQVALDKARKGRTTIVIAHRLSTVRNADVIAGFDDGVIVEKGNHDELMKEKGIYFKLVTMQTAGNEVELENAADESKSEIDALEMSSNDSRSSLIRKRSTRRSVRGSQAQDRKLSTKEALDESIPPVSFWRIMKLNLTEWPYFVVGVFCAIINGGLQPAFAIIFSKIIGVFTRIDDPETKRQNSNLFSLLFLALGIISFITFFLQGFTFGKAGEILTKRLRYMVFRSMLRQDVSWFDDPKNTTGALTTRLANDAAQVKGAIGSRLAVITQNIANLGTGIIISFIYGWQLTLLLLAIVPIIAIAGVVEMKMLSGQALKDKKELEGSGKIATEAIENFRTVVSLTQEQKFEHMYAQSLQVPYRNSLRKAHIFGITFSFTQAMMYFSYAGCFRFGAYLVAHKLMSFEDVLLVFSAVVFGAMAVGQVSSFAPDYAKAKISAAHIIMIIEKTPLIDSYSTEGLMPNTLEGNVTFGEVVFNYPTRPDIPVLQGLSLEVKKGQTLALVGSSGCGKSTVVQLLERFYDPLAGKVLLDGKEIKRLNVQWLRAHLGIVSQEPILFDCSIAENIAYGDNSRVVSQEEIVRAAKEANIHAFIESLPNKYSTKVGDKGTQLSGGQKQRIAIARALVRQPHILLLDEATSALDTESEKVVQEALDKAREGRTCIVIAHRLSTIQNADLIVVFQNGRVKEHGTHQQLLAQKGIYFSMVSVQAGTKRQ

Structure (SMILES)	inhibition at 100 μM (OCT1)	blood concentration [1]	efflux by P-gp (P-gp [2])	effect on P-gp activity (P-gp [3])	effect on P-gp activity or ATPase activity (P-gp [4])	inhibition of OATP1B1 activity (OATP1B1)	effect on OCT1 activity (OCT1; pyrethroid 100 μM, DAPI)	effect on BCRP ATPase activity (BCRP ATPase activity)	effect on BCRP activity (BCRP)
CC1(C)[C@H](C(=O)O[C@H](C#N)c2cccc(Oc3ccccc3)c2)[C@@H]1C=C(Br)Br [deltamethrin]	30.1 to 48.8%	< 5 μg/L and < 12.8 nM	not effluxed by P-gp	did not inhibit	–	–	–	–	–
CC(C)[C@H](C(=O)O[C@H](C#N)c1cccc(Oc2ccccc2)c1)c1ccc(Cl)cc1 [esfenvalerate]	–	–	–	did not alter	inhibit	less than 50%	failed to significantly alter	–	–
CC1(C)C(C=C(Cl)Cl)C1C(=O)OCc1cccc(Oc2ccccc2)c1 (stereo not shown) [permethrin]	–	< 5 μg/L and < 12.8 nM	–	did not alter	inhibit	–	–	blocked; also recorded: inhibited	without inhibiting
CC(C)=CC1C(C(=O)OCc2coc(Cc3ccccc3)c2)C1(C)C (stereo not shown) [resmethrin]	48.8%	–	–	–	–	–	–	inhibited	without inhibiting
